Tests used:
[1] = Cytotoxicty against HEK cells incubated for 72 hrs by SRB assay; assay type: toxicity, cell-based; details: human
MDA-MB-231 = assay: Antiproliferative activity against human MDA-MB-231 cells assessed as inhibition of cell proliferation incubated for 72 hrs by SRB assay; assay type: functional, cell-based; details: MDA-MB-231, 72 h
MCF7 = assay: Antiproliferative activity against human MCF7 cells assessed as inhibition of cell proliferation incubated for 72 hrs by SRB assay; assay type: functional, cell-based; details: MCF7, 72 h

SMILES: COc1ccc2c(c1OC)C(=O)O[C@@H]2[C@H]1c2c(c(NC(=O)Nc3cccc(F)c3)c3c(c2OC)OCO3)CCN1C
- IC50 at 72 h [1]: 292 µM
- IC50 (MDA-MB-231): 48.5 µM
- IC50 (MCF7): 37.9 µM

SMILES: COc1ccc2c(c1OC)C(=O)O[C@@H]2[C@H]1c2c(c(NC(=O)Nc3c(Cl)cc(Cl)cc3Cl)c3c(c2OC)OCO3)CCN1C
- IC50 at 72 h [1]: 293 µM
- IC50 (MDA-MB-231): 35.7 µM
- IC50 (MCF7): 27.7 µM

SMILES: COc1cc(NC(=O)Nc2c3c(c(OC)c4c2OCO4)[C@H]([C@H]2OC(=O)c4c2ccc(OC)c4OC)N(C)CC3)cc(OC)c1OC
- IC50 at 72 h [1]: 294 µM
- IC50 (MDA-MB-231): 48.1 µM
- IC50 (MCF7): 36.1 µM

SMILES: COc1ccc2c(c1OC)C(=O)O[C@@H]2[C@H]1c2c(c(NC(=O)Nc3ccc(F)c(Cl)c3)c3c(c2OC)OCO3)CCN1C
- IC50 at 72 h [1]: 285 µM
- IC50 (MDA-MB-231): 35.2 µM
- IC50 (MCF7): 32.7 µM

SMILES: CCc1ccc(NC(=O)Nc2c3c(c(OC)c4c2OCO4)[C@H]([C@H]2OC(=O)c4c2ccc(OC)c4OC)N(C)CC3)cc1
- IC50 at 72 h [1]: 290 µM
- IC50 (MDA-MB-231): 45.7 µM
- IC50 (MCF7): 38.2 µM
